The text below walks through data of patent US9121026B2 (priority 2004, dated 2015).

What all share (type): cell-based, Saccharomyces cerevisiae
Experiment [1] relates to RE700A Δpdr3 tok1::PPDR5long-HXT7. Description: Growth of RE700A Δpdr3 tok1::PPDR5long-HXT7 in the presence of 2-DG. As to conditions: RE700A Δpdr3 tok1::PPDR5long-HXT7, 20 h 28° C. Here is the method: (§1) (B) Relative growth of RE700A tok1::PPDR5long-HXT7, RE700A Δpdr1 tok1::PPDR5long-HXT7, RE700A Δpdr3 tok1::PPDR5long-HXT7 and RE700A Δpdr1,3 tok1::PPDR5long-HXT7 in the presence of 2-DG. Cells were incubated for 20 h at 28° C. with 2-DG at different concentrations. […] The standard error of the mean (n=5) is indicated.

The test system of experiment [2] is RE700A Δpdr3 tok1::PPDR5-HXT7. As to the kind of experiment: Growth inhibition of RE700A Δpdr3 tok1::PPDR5-HXT7 by 2-DG. As to conditions: RE700A Δpdr3 tok1::PPDR5-HXT7, maltose, 20 h 28° C. Here is the method:
(A) Growth inhibition of RE700A i PPDR5-HXT7 (IT[PDR]), RE700A Δpdr1 tok1::PPDR5-HXT7, RE700A Δpdr3 tok1::PPDR5-HXT7 and RE700A Δpdr1,pdr3 tok1::PPDR5-HXT7 at increasing 2-DG concentrations. RE700A i PPDR5-HXT7 (IT[PDR]), RE700A Δpdr1 tok1::PPDR5-HXT7, RE700A Δpdr3 tok1::PPDR5-HXT7 and RE700A Δpdr1,pdr3 tok1::PPDR5-HXT7 were incubated 20 h at 28° C. with Maltose (2% (w/v)) as the sole carbon source and 2-DG concentrations as indicated. The optical density was measured at 600 nm every 15 minutes and the integral under the growth curve was calculated. Inhibition of growth caused by 2-DG is shown in percent. The growth of the strain RE700A tok1::PPDR5-HXT7 (IT[PDR]) was inhibited by 50% at 0.02% (w/v) 2-DG. Growth of the strains RE700A Δpdr1 tok1::PPDR5-HXT7 and RE700A Δpdr3 tok1::PPDR5-HXT7 was inhibited by 50% at 0.026% (w/v) 2-DG.
All strains expressing HXT7 were tested for sensitivity to 2-DG. The strains expressing GFP under the control of PPDR5 were additionally analysed for GFP fluorescence in comparison to RE700Ae PPDR5-GFP (strain CQ[PDR]).

In experiment [3] the test system is RE700A e PCUP-HXT7 (ECFP). Description: Growth inhibition of ECFP by 2-DG. The following applies: 20 h 28° C., maltose, in percent of growth of RE700A. Here is the method:
(A) RE700A, ECFP and ET[PDR] were incubated 20 h at 28° C. with maltose (2% (w/v)) as the sole carbon source in the presence of the indicated 2-DG concentrations. The optical density was measured at 600 nm every 15 minutes and the integral under the growth curve was calculated. Inhibition of growth of ECFP and ET[PDR] is shown in percent of growth of RE700A. Growth of ECFP was inhibited by 39% at 0.005% (w/v) 2-DG, by 78% at 0.01% (w/v) 2-DG, by 91% at 0.03% (w/v) 2-DG and by 93% at 0.05% (w/v) 2-DG. Growth of ET[PDR] was inhibited by 52% at 0.005% (w/v) 2-DG, by 87% at 0.01% (w/v) 2-DG, by 94% at 0.03% (w/v) 2-DG and by 96% at 0.05% (w/v) 2-DG.
(§2) Strain growth: The growth of the strains in liquid medium was determined by measuring the optical density at 600 nm. To obtain growth curves, measurements were performed every 15 min. Alternatively, start and endpoint (after 12-16 h) measurements were carried out.

Experiment [4] deals with S. cerevisiae strain RE700A. Description: Growth inhibition of RE700A by 2-DG in liquid maltose medium (OD600, integral under growth curve). Here is the method:
FIG. 1: Growth inhibition of S. cerevisiae strain RE700A at increasing 2-deoxy-glucose (2-DG) concentrations after incubation at 280 C for 20 h. RE700A was incubated for 20 h at 28° C. with maltose (2% (w/v)) as the sole carbon source and 2-DG at the concentrations indicated. The optical density was measured at 600 nm every 15 minutes and the integral under the growth curve was calculated. Inhibition of growth is shown in percent of growth of RE700A in the absence of 2-DG. The strain grew well in the presence of up to 0.5% (w/v) 2-DG.
as §2
The screening system used Saccharomyces cerevisiae RE700A, a yeast strain deprived of the seven most important glucose transporters (HXT1-7) (Reifenberger, E. et al., Molecular Microbiology 16:157-167 (1995)). The strain is not able to grow on glucose as the sole carbon source. It grows on maltose (2% (w/v)) as the sole carbon source. In addition, the strain grows well on maltose also in the presence of up to 0.5% (w/v) 2-deoxy-glucose (2-DG), a toxic glucose analogue, in the medium (FIG. 1). Growth is inhibited by 50% at a 2-DG concentration in liquid media of ˜1% (w/v) (FIG. 1).

In experiment [5] the test system is RE700A Δpdr1,3 tok1::PPDR5long-HXT7. Description: Growth of RE700A Δpdr1,3 tok1::PPDR5long-HXT7 in the presence of 2-DG. Here is the method:
as §1

In experiment [6] the test system is RE700A tok1::PPDR5long-HXT7. As to the kind of experiment: Growth of RE700A tok1::PPDR5long-HXT7 in the presence of 2-DG. As to conditions: RE700A tok1::PPDR5long-HXT7, liquid media, 20 h 28° C. On the procedure:
as §1

As a reminder, the Inhibition of growth is the percentage by which the read-out fell short of the control. The low end stands for a response near the control, the high end for a response far below the control. Regarding `O=CC[C@@H](O)[C@H](O)[C@H](O)CO` [2-DG, 2-deoxy-glucose], the “2-DG concentration for 50% growth inhibition” value is given as 0.029 % (w/v) in experiment [1]; 0.026 % (w/v) in experiment [2]; 0.6 % (w/v) in experiment [5] (RE700A Δpdr1,3 tok1::PPDR5long-HXT7, liquid media, 20 h 28° C.); 0,025 % (w/v) in experiment [6]. The Inhibition of growth in experiment [3] (0.005% (w/v) 2-DG) amounted to 39%; in experiment [3] (0.01% (w/v) 2-DG), 78%; in experiment [3] (0.03% (w/v) 2-DG) it was 91%; in experiment [3] (0.05% (w/v) 2-DG), 93%. Also, the “2-DG concentration at which growth is inhibited by 50%” value in experiment [4] (liquid media, maltose) is on record as ~1 % (w/v). Moreover, in experiment [4] (maltose 2% (w/v) sole carbon source, 20 h, 28° C.), the “2-DG concentration up to which the strain grows well” value is listed as “up to 0.5 % (w/v)”. The “Sensitivity to 2-DG compared with the other PPDR5long-HXT7 strains” value in experiment [5] (RE700A Δpdr1,3 tok1::PPDR5long-HXT7, 20 h 28° C., n=5) is recorded as “far less sensitive”. The “Increase of tolerance to 2-DG” value in experiment [5] (RE700A Δpdr1,3 tok1::PPDR5long-HXT7 versus RE700A Δpdr1 tok1::PPDR5long-HXT7) was about 10 fold.
